Measured values as given in patent US20200062712A1, “ALDEHYDE TRAPPING COMPOUNDS AND USES THEREOF” (Aldeyra Therapeutics, Inc., priority 2016, published 2020).

What was measured:
[1] = Consumption of 4-HNE over time, HPLC at 254 nm; conditions: for Consumption of 4-HNE 7 Hours (ranking, most effective to least): rank 1 = most effective; for Consumption of 4-HNE 23 Hours (ranking, most effective to least): small differences between samples ranking 1-4, essentially identical; for Decrease in HNE versus corresponding increase in adduct: one-week time period
Excerpt: Five of 6 samples show consumption of 4-HNE. One sample (2-(3-aminoquinolin-2-yl)propan-2-ol) overlaps the 4-HNE HPLC peak using the current method. Best fit lines over this period give poorer fit to data than product formation data. Rate of 4-HNE consumption can be used as an approximation of binding kinetics.
The samples appeared to reach equilibrium, with the ongoing decrease in HNE amounts possibly due to another degradative pathway.

[2] = Rate of formation of aldehyde (4-HNE) adducts, HPLC product peak over time; conditions: for Formation of Product 7 Hours (ranking, most effective to least) / Formation of Product 23 Hours (ranking, most effective to least): rank 1 = most effective; for Gradient (rate of product peak increase, formation of aldehyde adduct): best fit line
Protocol: It is not possible to conclude if this is the result of poor dissociation (from cyclodextrin) or poor interaction with the aldehyde. Best fit lines over this period give excellent fit to data. […] It can be used to relatively rank each of the samples examined, including NS2. The data were first evaluated over a 7 h time window.
Similar results were obtained when the window was extended to 23 h. However, two of the compounds yielded lower R. Sq. values in this context.
During this time period 3 of the 5 samples reached equilibrium.

[3] = Formation of 4-HNE adduct with exemplary compounds (AUC of adduct over time); conditions: one equivalent of 4-HNE and 2 equivalents of compound; performed twice
Protocol: The ability of exemplary compounds to react with 4-HNE and form the corresponding adduct was measured. All compounds were analyzed by HPLC at 254 nm for their purity prior to the reaction.
Area under the curve (AUC) of each adduct was plotted over time.

[4] = test system: brain slices of B6.129-Aldh5a1tm1Kmg/J (SSADH null) mice; experiment: Ex vivo SSADH study: GABA and GHB content of brain slices and incubation media by HPLC; assay type: cell-based; conditions: 100 μg/mL, 24 hours incubation; SSADH null mouse brain slices
Protocol: Three and one half (3.5) days after birth, B6.129-Aldh5a1^tm1Kmg/J (SSADH null) mice and wild type (wt) littermates animals were sacrificed and brains were harvested. […] Brain slices and the incubation media (sup) were then analyzed by HPLC for GHB and GABA content.

[5] = test system: abcr−/− knockout mice; assay type: in vivo; conditions: 10 mg/kg IP daily for 56 days, p=0.011
Protocol: This experiment is designed to establish proof of concept that chronic intraperitoneal administration of a RAL-trap compound lowers the accumulation rate of A2E in B6:129SvEv-Abcr (abcr−/−) mice.
The study was performed with B6:129SvEv-Abcr (abcr−/−) mice. Treatment groups included 24 mice (males and females) per treatment condition. Each animal was treated with one of the following conditions: • Control: a commercially available compound known clinically to modulate retinal function in humans and known experimentally to form a Schiff base adduct with free RAL, both in vitro and in vivo in animal models. • Vehicle • Compound • Untreated
A third group of animals served as untreated controls and were sacrificed on Day 1 of the study.
The experiments described herein used a variety of biology and biochemistry services. If necessary, non-toxic doses of compounds of the invention, formulated for treatment with an eye drop or other formations, may be established, e.g., in the rabbit with an ocular irritation protocol. […] Light responses were characterized by ERG (Weng, et al., Cell 98:13, 1999). Intracellular A2E concentration of retinal RPE cell extracts were measured using an analytical method such as those described by Karan et al., 2005; Radu et al., 2003; and Parish et al., PNAS 95:14609, 1998.

[6] = 7 h time window, samples in cyclodextrin

Structure (SMILES) | Consumption of 4-HNE 7 Hours (ranking, most effective to least) [1] | Consumption of 4-HNE 23 Hours (ranking, most effective to least) [1] | Gradient (rate of 4-HNE consumption) ([1]; 23 h) | Gradient (rate of 4-HNE consumption) ([1]; first 7 h, analysis at 254 nm) | Decrease in HNE versus corresponding increase in adduct [1] | Formation of Product 7 Hours (ranking, most effective to least) [2] | Formation of Product 23 Hours (ranking, most effective to least) [2] | Gradient (rate of product peak increase, formation of aldehyde adduct) [2, 6] | Gradient (rate of product peak increase, formation of aldehyde adduct) ([2]; window extended to 23 h) | Formation of the corresponding adduct with 4-HNE [3] | GABA content compared to the controls [4] | GHB content compared to the controls [4] | Reduction of formation of A2E compared with vehicle-treated controls [5]
CC(C)(O)c1nc2cc(Cl)ccc2cc1N [Compound I-3, 2-(3-amino-7-chloroquinolin-2-yl)propan-2-ol] | 2 | 1 | (Gradient −0.05, R. | (Gradient −0.06, R. | decrease in HNE is greater than the corresponding increase in adduct | 3 | 3 | (Gradient 2.02, R. | (Gradient 1.21, R. |  |  |  | 
CC(C)(O)c1nc2ccccc2cc1N [Compound I-1, 2-(3-aminoquinolin-2-yl)propan-2-ol] |  |  |  |  |  | 1 | 1 | (Gradient 3.68, R. | (Gradient 1.99, R. | formed the corresponding adduct with 4-HNE | decreased | decreased | 
CC(C)(O)c1nc2cccc(Cl)c2cc1N [Compound I-2, 2-(3-amino-5-chloroquinolin-2yl)propan-2-ol] | 3 | 2 | (Gradient −0.04, R. | (Gradient −0.05, R. |  | 6 | 6 | (Gradient 0.86, R. | (Gradient 0.44, R. |  |  |  | 
CC(C)(O)c1nc2c(Cl)cccc2cc1N [Compound I-4, 2-(3-amino-8-chloroquinolin-2-yl)propan-2-ol] | 5 | 5 | (Gradient −0.02, R. | (Gradient −0.01, R. | decrease in HNE is greater than the corresponding increase in adduct | 5 | 5 | (Gradient 1.18, R. | (Gradient 0.81, R. |  |  |  | 
CC(C)(O)c1nc2ccc(Br)cc2cc1N [Compound I-5, 2-(3-amino-6-bromoquinolin-2-yl)propan-2-ol] | 4 | 4 | (Gradient −0.04, R. | (Gradient −0.04, R. |  | 4 | 4 | (Gradient 1.63, R. | (Gradient 1.16, R. |  |  |  | 
CC(C)(O)c1nc2ccc(Cl)cc2cc1N [NS2, 2-(3-amino-6-chloroquinolin-2-yl)propan-2-ol, reference compound] | 1 | 3 | (Gradient −0.04, R. | (Gradient −0.15, R. |  | 2 | 2 | (Gradient 2.22, R. | (Gradient 1.33, R. | formed the corresponding adduct with 4-HNE | decreased | decreased | 71%
